Laboratory results: patent US20250289808A1 (BenoBio Co., Ltd, priority 2024, published 2025)

Key:
[1] = system: retinal degeneration mouse model; test: Electroretinogram (ERG) in blue LED-induced retinal degeneration mouse model; format: in vivo, BALB/c mice; conditions: compound 24 nM, Eylea 25 mg/kg; for Wavelength enhanced multiple compared to a normal saline-treated group, Average value: average of a-wave and b-wave; for Wavelength enhanced multiple compared to a normal saline-treated group, a-wave / Wavelength enhanced multiple compared to a normal saline-treated group, b-wave: single intravitreal injection 1 hour after LED exposure
[2] = system: macular degeneration animal model; test: Laser-induced macular degeneration mouse model, FFA and OCT imaging; format: in vivo; conditions: day 11, compound 0.022 μg/eye, Eylea 20 μg/eye
Method: After the mouse was subjected to general anesthesia, the eye was applied with anesthetic eye drops to be subjected to additional local anesthesia and additionally induce mydriasis. A macular degeneration animal model was prepared by destroying the Bruch's membrane by inducing laser burn according to macular degeneration induction conditions. […] On day 11 of macular degeneration induction, the mice were subjected to general anesthesia and then injected intraperitoneally with a fluorescent contrast agent. The mouse was placed on the sacrifice table, lubricating gel was dropped into the corresponding eye, and an OCT lens was brought into contact with the mouse's cornea. Image analysis for fluorescein fundus angiography (FFA) and OCT was performed using the Image-J program.

BRD2 (BD1) = target: T1, BRD2 (BD1) (Homo sapiens, UniProt P25440); test: Binding inhibitory effect on BRD2 protein (AlphaScreen, acetyl-histone H4 peptide); conditions: GST-BRD2 (BD1) 100 nM, biotinylated acetyl-histone H4 peptide 100 nM
T1 construct: a bromodomain of BRD2 (BD1) and BRD3 (BD1), one of the BET protein family
T1 sequence (P25440 74-180 limits assumed): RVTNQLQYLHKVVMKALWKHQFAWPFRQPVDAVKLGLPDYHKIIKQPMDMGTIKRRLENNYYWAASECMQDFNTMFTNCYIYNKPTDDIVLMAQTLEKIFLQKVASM

BRD3 (BD1) = target: T2, BRD3 (BD1) (Homo sapiens, UniProt Q15059); test: Binding inhibitory effect on BRD3 protein (AlphaScreen, same manner as 1-1); conditions: same manner as Experimental Example 1-1
T2 construct: a bromodomain of BRD2 (BD1) and BRD3 (BD1), one of the BET protein family; GST
T2 sequence (Q15059 34-140 limits assumed): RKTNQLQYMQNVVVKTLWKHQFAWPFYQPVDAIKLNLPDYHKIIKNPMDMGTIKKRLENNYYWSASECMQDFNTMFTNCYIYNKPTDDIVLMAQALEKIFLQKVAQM

SMILES | Wavelength enhanced multiple compared to a normal saline-treated group, Average value [1] | Wavelength enhanced multiple compared to a normal saline-treated group, a-wave [1] | Wavelength enhanced multiple compared to a normal saline-treated group, b-wave [1] | IC50 (BRD2 (BD1)) [µM] | IC50 (BRD3 (BD1)) [nM] | CTF value ([2]; FFA imaging) | Lesion size compared to negative control group ([2]; FFA imaging) [%] | Lesion size compared to negative control group ([2]; OCT imaging) [%] | Volume of lesion ([2]; OCT imaging)
CNC(=O)C1(C)CN(Cc2ccc(-c3ccccc3-c3cccc4c3CN(C)C4=O)o2)CCC1O (stereo not shown) [Compound 25] | 1.27 | 1.52 | 1.01 | – | – | 300,650 Pixels | 32.66 | 44.01 | 958,694 μm^3
CN1Cc2c(cccc2-c2ccccc2-c2ccc(CN3CCOCC3)o2)C1=O [Compound 13, 2-methyl-4-(2-(5-(morpholinomethyl)furan-2-yl)phenyl)isoindoline-1-one] | 1.33 | 1.29 | 1.36 | – | – | 321,816 Pixels | 34.96 | 57.66 | 1,256,002 μm^3
CNC(=O)C1(Cc2ccc(F)cc2)CCN(Cc2ccc(-c3ccccc3-c3cccc4c3CN(C)C4=O)o2)CC1 [Compound 21, 2-methyl-4-(2-(5-(((4-(4-fluorobenzyl)-4′-carboxamidyl)piperidine)methyl)furan-2-yl)phenyl)isoindoline-1-one] | 2.30 | 2.17 | 2.42 | – | – | 251,239 Pixels | 27.29 | 40.79 | 888,502 μm^3
CNC(=O)C1(Cc2ccccc2)CCCN(Cc2ccc(-c3ccccc3-c3cccc4c3CN(C)C4=O)o2)C1 (stereo not shown) [Compound 27] | – | – | – | 14.1 | 2540 | – | – | – | –
CN1Cc2c(cccc2-c2ccccc2-c2ccc(CNCc3cnn(C)c3)o2)C1=O [Compound 18, 2-methyl-4-(2-(5-((((1-methyl-1H-pyrazole-4yl)methyl)amino)methyl)furan-2-yl)phenyl)isoindoline-1-one] | 2.04 | 2.05 | 2.03 | – | – | 389,222 Pixels | 42.28 | 45.15 | 983,477 μm^3
CC(C)NCc1ccc(-c2ccccc2-c2cccc3c2CN(C)C3=O)o1 [Compound 8, 2-methyl-4-(2-(5-((isopropylamino)methyl)furan-2-yl)phenyl)isoindoline-1-one] | – | – | – | 16.6 | – | – | – | – | –

Now from value to compound, other results behind:

Wavelength enhanced multiple compared to a normal saline-treated group, Average value [1] | Wavelength enhanced multiple compared to a normal saline-treated group, a-wave [1] | Wavelength enhanced multiple compared to a normal saline-treated group, b-wave [1] | IC50 (BRD2 (BD1)) [µM] | IC50 (BRD3 (BD1)) [nM] | SMILES | CTF value ([2]; FFA imaging) | Lesion size compared to negative control group ([2]; FFA imaging) [%] | Lesion size compared to negative control group ([2]; OCT imaging) [%] | Volume of lesion ([2]; OCT imaging)
1.36 | 1.21 | 1.51 | – | – | CNC(=O)C1(Cc2ccc(F)cc2)CCN(Cc2oc(-c3ccccc3-c3cccc4c3CN(C)C4=O)cc2C)CC1 [Compound 39, 2-methyl-4-(2-(5-((3-methyl (4-(4-fluorobenzyl)-4′-carboxamidyl)piperidine)methyl)furan-2-yl)phenyl)isoindoline-1-one] | 252,108 Pixels | 27.38 | 58.10 | 1,265,636 μm^3
1.32 | 1.25 | 1.38 | – | – | CNC(=O)CC1C(=O)NCCN1Cc1oc(-c2ccccc2-c2cccc3c2CN(C)C3=O)cc1C (stereo not shown) [Compound 42, 2-methyl-4-(2-(5-(3-methyl(N-methyl-2-(3-oxopiperazine-2yl)acetamidyl)methyl)furan-2-yl)phenyl)isoindoline-1-one] | 381,846 Pixels | 41.48 | 52.86 | 1,151,561 μm^3
1.38 | 1.45 | 1.31 | – | – | CN1Cc2c(cccc2-c2ccccc2-c2ccc(COCN3CCC(F)(F)CC3)o2)C1=O [Compound 37, 2-methyl-4-(2-(5-((((4,4-difluoropiperidine-1-yl)methoxy)-3-carboxamidyl)methyl)furan-2-yl)phenyl)isoindoline-1-one] | 320,028 Pixels | 34.76 | 46.40 | 1,010,752 μm^3
– | – | – | 12.3 | 1220 | CNC(=O)CC1C(=O)NCCN1C(=O)c1ccc(-c2ccccc2-c2cccc3c2CN(C)C3=O)o1 (stereo not shown) [Compound 35] | – | – | – | –
1.30 | 1.16 | 1.43 | – | – | CCC1(C(=O)NC)CCCN(Cc2oc(-c3ccccc3-c3cccc4c3CN(C)C4=O)cc2C)C1 (stereo not shown) [Compound 40] | 362,456 Pixels | 39.37 | 54.01 | 1,176,522 μm^3
